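Compound exposure: 48 hours, 5 concentrations, 96-well plates. TGI is the concentration that stops growth completely.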
Tests used:
Test in all cases: growth of human tumour cells (NCI), 48 h
[1] = tested on: HL-60(TB) leukemia
[2] = tested on: OVCAR-4 ovarian
[3] = tested on: CCRF-CEM leukemia
[4] = tested on: SN12C renal
[5] = tested on: DU-145 prostate
[6] = tested on: SK-MEL-5 melanoma
[7] = tested on: 786-0 renal
[8] = tested on: PC-3 prostate
[9] = tested on: NCI-H23 lung
[10] = tested on: OVCAR-3 ovarian
[11] = tested on: UACC-62 melanoma
[12] = tested on: U251 CNS
[13] = tested on: SNB-19 CNS
[14] = tested on: TK-10 renal
[15] = tested on: UACC-257 melanoma
[16] = tested on: NCI-H460 lung
[17] = tested on: CAKI-1 renal
[18] = tested on: OVCAR-5 ovarian
[19] = tested on: MCF7 breast
[20] = tested on: SNB-75 CNS
[21] = tested on: UO-31 renal
[22] = tested on: KM12 colon
[23] = tested on: MDA-N
[24] = tested on: T-47D breast
[25] = tested on: RPMI-8226 leukemia
[26] = tested on: HOP-62 NSCLC
[27] = tested on: EKVX NSCLC
[28] = tested on: SK-MEL-28 melanoma
[29] = tested on: A498 renal
[30] = tested on: COLO 205 colon
[31] = tested on: MDA-MB-231 breast
[32] = tested on: HS 578T breast
[33] = tested on: NCI/ADR-RES ovarian
[34] = tested on: OVCAR-8 ovarian
[35] = tested on: NCI-H226 lung
[36] = tested on: SW-620 colon
[37] = tested on: SF-268 CNS
[38] = tested on: IGROV1 ovarian
[39] = tested on: K-562 leukemia
[40] = tested on: SF-295 CNS
[41] = tested on: HOP-92 NSCLC
[42] = tested on: ACHN renal
[43] = tested on: HT29 colon
[44] = tested on: SK-OV-3 ovarian
[45] = tested on: MDA-MB-435
[46] = tested on: M14 melanoma
[47] = tested on: A549 NSCLC
[48] = tested on: HCT-15 colon
[49] = tested on: SK-MEL-2 melanoma
[50] = tested on: MOLT-4 leukemia
[51] = tested on: SR leukemia
[52] = tested on: HCT-116 colon

For `C=C[C@@H](OCOCC[Si](C)(C)C)[C@@H](CC)OC(CCCOC(=O)C(C)(C)C)OC` (some centres not stated), which TGI [1] is on record?
The TGI was 49.6 µM.

What about the TGI [2] of the same molecule?
Its TGI is > 100 µM.

What about the TGI [3] of the same molecule?
Its TGI is 92.8 µM.

What about the TGI [4] of the same molecule?
Its TGI is > 100 µM.

And the TGI [5]?
Its TGI is > 100 µM.

And the TGI [6]?
The TGI was > 100 µM.

And the TGI [7]?
The TGI was 88.5 µM.

And the TGI [8]?
The TGI was > 100 µM.

What about the TGI [9] of the same molecule?
Its TGI is > 100 µM.

And the TGI [10]?
Its TGI is > 100 µM.

And the TGI [11]?
Its TGI is 81.3 µM.

What about the TGI [12] of the same molecule?
Its TGI is 57.6 µM.

What about the TGI [13] of the same molecule?
The TGI was 32.3 µM.

What about the TGI [14] of the same molecule?
Its TGI is 78.9 µM.

What about the TGI [15] of the same molecule?
The TGI was > 100 µM.

What about the TGI [16] of the same molecule?
Its TGI is > 100 µM.

What about the TGI [17] of the same molecule?
The TGI was > 100 µM.

What about the TGI [18] of the same molecule?
Its TGI is 44.4 µM.

What about the TGI [19] of the same molecule?
Its TGI is 44.9 µM.

And the TGI [20]?
Its TGI is > 100 µM.

What about the TGI [21] of the same molecule?
Its TGI is > 100 µM.

What about the TGI [22] of the same molecule?
Its TGI is 63 µM.

And the TGI [23]?
The TGI was > 100 µM.

What about the TGI [24] of the same molecule?
The TGI was 56.5 µM.

And the TGI [25]?
Its TGI is > 100 µM.

And the TGI [26]?
The TGI was > 100 µM.

And the TGI [27]?
The TGI was 65.4 µM.

What about the TGI [28] of the same molecule?
The TGI was > 100 µM.

What about the TGI [29] of the same molecule?
Its TGI is > 100 µM.

And the TGI [30]?
The TGI was 95.1 µM.

What about the TGI [31] of the same molecule?
Its TGI is > 100 µM.

And the TGI [32]?
Its TGI is 99.5 µM.

And the TGI [33]?
The TGI was > 100 µM.

And the TGI [34]?
The TGI was > 100 µM.

And the TGI [35]?
The TGI was 81.6 µM.

What about the TGI [36] of the same molecule?
The TGI was 70.1 µM.

And the TGI [37]?
The TGI was > 100 µM.

And the TGI [38]?
Its TGI is > 100 µM.

What about the TGI [39] of the same molecule?
Its TGI is > 100 µM.

And the TGI [40]?
Its TGI is 50.7 µM.

And the TGI [41]?
Its TGI is > 100 µM.

What about the TGI [42] of the same molecule?
Its TGI is > 100 µM.

And the TGI [43]?
Its TGI is > 100 µM.

What about the TGI [44] of the same molecule?
Its TGI is > 100 µM.

And the TGI [45]?
The TGI was > 100 µM.

What about the TGI [46] of the same molecule?
The TGI was > 100 µM.

What about the TGI [47] of the same molecule?
Its TGI is > 100 µM.

And the TGI [48]?
Its TGI is 50.9 µM.

And the TGI [49]?
The TGI was 52.9 µM.

And the TGI [50]?
Its TGI is > 100 µM.

And the TGI [51]?
The TGI was > 100 µM.

What about the TGI [52] of the same molecule?
Its TGI is 52.8 µM.

From PubChem BioAssay (NCI)
